Measured values: publication PMC7168207, “Dibasic Derivatives of Phenylcarbamic Acid as Prospective Antibacterial Agents Interacting with Cytoplasmic Membrane” (Antibiotics, 2020)
Where “and” joins values, the source holds several entries; their conditions need not be identical. Identical values can stand only once. Like-named read-outs stand apart in the source and are kept apart here.

Tests used:
S. aureus ATCC 29213 = assay: MIC, broth microdilution; assay type: cell-based, Staphylococcus aureus
Procedure: (§1) The modified broth microdilution method was used for in vitro evaluation of minimum inhibitory concentration. A small portion of bacterial colony cultivated overnight onto nutrient agar (Oxoid, Basingstoke, UK) with 5% bovine blood was suspended in sterile phosphate-buffered saline to get cell density 0.5 McFarland. This inoculum was diluted to reach the final concentration of bacterial cells 5 × 10^5 CFU/mL in the wells. […] For plates with staphylococci, cation adjusted Mueller–Hinton (CaMH) broth (Oxoid) was used; enterococci were cultivated in brain heart infusion (BHI, Oxoid). […] A drug-free control and a sterility control were included. Inoculated plates were incubated in aerobic atmosphere at 37 °C overnight. […] After evaluation of MICs, 10 µL of aliquots from the wells were put onto Mueller–Hinton agar. The agar plates were cultivated at 37 °C for 24 h. The minimum bactericidal concentration (MBC) was defined as the lowest concentration of the compound that killed 99.9% of the bacteria compared to the starting inoculum.

[1] = test system: methicillin-resistant S. aureus 63718; assay: MIC, broth microdilution; assay type: cell-based, Staphylococcus aureus; conditions: MRSA1 = S. aureus 63718; for MIC: read-out: MICs
Procedure: as §1

[2] = test system: methicillin-resistant S. aureus SA 3202; assay: MIC, broth microdilution; assay type: cell-based, Staphylococcus aureus; conditions: MRSA3 = SA 3202; for MIC: read-out: MICs
Procedure: as §1

[3] = test system: methicillin-resistant S. aureus SA 630; assay: MIC, broth microdilution; assay type: cell-based, Staphylococcus aureus; conditions: MRSA2 = SA 630; for MIC: read-out: MICs
Procedure: as §1

[4] = design: method as in PMID 30274224; conditions: methanolic solutions, c = 8.0 × 10^−5 M; cited from earlier work
[5] = design: method as in PMID 30274224; conditions: isocratic RP-HPLC, extrapolated lipophilicity index; cited from earlier work
[6] = test system: human monocytic leukemia THP-1 cells; assay: in vitro antiproliferative assay (WST-1); assay type: cell-based; conditions: THP-1 cells, WST-1, 24 h, read-out: Tox IC50
Procedure: The preliminary in vitro screening of the antiproliferative effect of the investigated compounds was performed using a Water Soluble Tetrazolium salts-1 (WST-1) assay kit and a human monocytic leukemia THP-1 cell line by means of the method described recently. The principle of the WST-1 assay kit is the […] mitochondrial dehydrogenases by antiproliferative compounds. The activity of this enzyme directly correlates with the number of metabolically active cells in the culture. The antiproliferative effect was evaluated as the IC50 value (the concentration of the compound causing 50% inhibition of cell proliferation).
Human monocytic leukemia THP-1 cells were used for in vitro antiproliferative assay. Cells were obtained from the European Collection of Cell Cultures (ECACC, Salisbury, UK) and routinely cultured in RPMI (Roswell Park Memorial Institute) 1640 medium supplemented with 10% fetal bovine serum, 2% L-glutamine, 1% penicillin, and streptomycin at 37 °C with 5% CO2. Cells were passaged at approximately one-week intervals. The antiproliferative activity of the compounds was determined using a Water Soluble Tetrazolium Salts-1 (WST-1, 2-(4-iodophenyl)-3-(4-nitrophenyl)-5-(2,4-disulfophenyl)-2H-tetrazolium) assay kit (Roche Diagnostics, Mannheim, Germany) according to the manufacturer’s instructions. The tested compounds were dissolved in DMSO and added in various compound concentrations to the cell suspension in the culture RPMI 1640 medium. The maximum concentration of DMSO in the assays never exceeded 0.1%. Subsequently, the cells were incubated at 37 °C with 5% CO2 for 24 h. For WST-1 assays, cells were seeded into 96-well plates (5 × 10^4 cells/well in 100 μL culture medium) in triplicate in serum-free RPMI 1640 medium, and measurements were taken 24 h after the treatment with the compounds. The median inhibition concentration values, IC50, were deduced through the production of a dose-response curve. All data were evaluated using GraphPad Prism 5.00 software (GraphPad Software, San Diego, CA, USA).

[7] = test system: vancomycin-resistant enterococci VRE 342B; assay: MIC, broth microdilution; assay type: cell-based, Enterococcus faecalis; conditions: VRE1 = VRE 342B; for MIC: read-out: MICs
Procedure: as §1

[8] = test system: vancomycin-resistant enterococci VRE 725B; assay: MIC, broth microdilution; assay type: cell-based, Enterococcus faecalis; conditions: VRE3 = VRE 725B; for MIC: read-out: MICs
Procedure: as §1

[9] = test system: vancomycin-resistant enterococci VRE 368; assay: MIC, broth microdilution; assay type: cell-based, Enterococcus faecalis; conditions: VRE2 = VRE 368; for MIC: read-out: MICs
Procedure: as §1

E. faecalis ATCC 29212 = assay: MIC, broth microdilution; assay type: cell-based, Enterococcus faecalis; conditions: EF = E. faecalis ATCC 29213
Procedure: as §1

[10] = test system: Candida albicans CCM 8261; assay: minimum fungistatic concentration, RPMI 1640; assay type: cell-based; conditions: CCM8261, CA = C albicans CCM 8261, 48 h
Procedure: Fungistatic activity was tested similarly in RPMI (Roswell Park Memorial Institute) 1640 medium (Sigma, Pool, UK). […] A growth control and sterility control were included. The colonies of C. albicans grown overnight on Sabourad dextrose agar were suspended in sterile phosphate-buffered saline (PBS) to get cell density 0.5 McFarland. The inoculum was diluted to get a final concentration of 10^3 CFU/mL in the wells. Plates were inoculated and cultivated at 37 °C for 48 h. The minimum fungistatic concentration was visually evaluated as the lowest concentration of a tested compound, which inhibited 100% of yeast growth. 5-Flucytosin (Sigma, UK) was used as a positive control.

[11] = design: method as in PMID 30274224; conditions: cited from earlier work
[12] = test system: S. aureus ATCC 29213 biofilm; assay: biofilm susceptibility / eradication of preformed biofilm (MTT); assay type: cell-based, Staphylococcus aureus; conditions: 80% reduction of metabolic activity of preformed biofilm, 24 h
Procedure: (§2) The ability of compounds 1f, 1g, and 1h to inhibit biofilm growth and destroy the matured biofilm of S. aureus ATCC 29213 was investigated. The inhibitory activity was studied by the method with crystal violet. The activity to disrupt matured biofilm was evaluated as a decrease of metabolic activity using the MTT assay.
Biofilms were grown as described above but without the presence of the compounds. After 48 h of incubation at 37 °C, the contents of the wells were removed, and the plates were washed three times by sterile PBS. After washing, 100 µL of tested compounds in CaMH were added to the wells. […] A growth control containing 2.5% of DMSO in CaMH was included. The plates were incubated at 37 °C for 24 h, then the solutions of compounds were removed, and the plates were gently washed three times by sterile PBS. Bacterial viability was analyzed using 100 µL of 0.05 mg/mL MTT (3-(4,5-dimethylthiazol-2-yl)- 2,5-diphenyltetrazolium bromide) in PBS in each well. The plates with MTT were incubated at 37 °C for 1–2 h in darkness, until the blue formazan crystals appeared. MTT solution was removed and the plates were washed once by PBS. Crystals of formazan were dissolved using 17% sodium dodecysulphate in 40% dimethylformamid. The absorbance at 570 nm was measured and the percentage of eradication was counted according to the equation (3) % of eradication = 100 − OD570S/OD570C × 100 where OD570S is the absorbance of the sample at 570 nm and OD570C is the absorbance of the growth control at 570 nm. The minimum biofilm eradication concentration was the lowest concentration of the compound, which reduced the metabolic activity of the biofilm by 80% compared to the growth control. The experiment was made in duplicate and repeated at least three times.

[13] = test system: S. aureus ATCC 29213 biofilm; assay: biofilm inhibition assay (crystal violet); assay type: cell-based, Staphylococcus aureus; conditions: ≥80% inhibition of biofilm formation, 48 h
Procedure: as §2
The plates were inoculated by inoculum of S. aureus ATCC 29213 grown in TSB + 2% glucose to exponential phase. Before the inoculation of the plate, the original inoculum was diluted to 1 McFarland and then 1:100 in fresh TSB + 2% glucose, to reach the final concentrations in the wells of […]. […] The plates were incubated at 37 °C for 48 h. After incubation, the contents of the wells were removed, and the plates were washed three times by sterile PBS. After drying, 125 μL of 0.5% crystal violet was added to each well and the plates were stained at room temperature for 20 min. Then the dye was removed, and the plates were washed three times by sterile PBS. The colored biofilm was detached from the wells using 33% solution of acetic acid. The absorbance at 595 nm was measured. As a blank, a non-inoculated plate treated in the same way was used. […] The minimum biofilm inhibitory concentration was the lowest concentration of the compounds, which inhibited the growth of 80% bacteria compared to the growth control. The experiment was made in duplicate and repeated at least three times.

[14] = Staphylococcus aureus, ATCC29213, SA = S. aureus ATCC 29213, read-out: MICs
[15] = Enterococcus faecalis, ATCC 29212 / ATCC 29213

SMILES	MIC (S. aureus ATCC 29213; [14])	MIC ([1]; Staphylococcus aureus)	MIC ([2]; Staphylococcus aureus)	MIC ([3]; Staphylococcus aureus)	log ε2 (Ch-T) [4]	log kw [5]	IC50 ([6]; Homo sapiens, THP-1, 24 h) [µM]	MIC ([7]; Enterococcus)	MIC ([8]; Enterococcus)	MIC ([9]; Enterococcus)	MIC (E. faecalis ATCC 29212; [15])	MIC [10]	γ (surface tension, relative surface activity) [11] [N/m]	IC50 [6] [µM]	further results
CCCCOc1cccc(NC(=O)OC(CN(CCC)CCC)CN2CCCCCC2)c1 (stereo not shown) [1m]	128 µg/mL and 245 µM	32 µg/mL and 61.5 µM	64 µg/mL and 122 µM	64 µg/mL and 122 µM	4.09	4.7099	4.9 ± 0.19	32 µg/mL and 61.5 µM	16 µg/mL and 30.7 µM	64 µg/mL and 122 µM	32 µg/mL and 61.5 µM	> 128 µg/mL and > 245 µM	0.06298		
CCCCCOc1cccc(NC(=O)OC(CN(CCC)CCC)CN2CCCCCC2)c1 (stereo not shown) [1n]	128 µg/mL and 239 µM	64 µg/mL and 119 µM	256 µg/mL and 478 µM	128 µg/mL and 239 µM	4.18	5.2087	4.99 ± 0.99	32 µg/mL and 59.9 µM	16 µg/mL and 29.9 µM	64 µg/mL and 119 µM	16 µg/mL and 29.9 µM	> 128 µg/mL and > 239 µM	0.06154		
CCCCCCOc1cccc(NC(=O)OC(CN(CCC)CCC)CN2CCCCCC2)c1 (stereo not shown) [1o]	> 256 µg/mL and > 466 µM	128 µg/mL and 233 µM	> 256 µg/mL and > 466 µM	> 256 µg/mL and > 466 µM	4.01	5.6569	< 6.5	32 µg/mL and 58.3 µM	8 µg/mL and 14.6 µM	256 µg/mL and 466 µM	16 µg/mL and 29.2 µM	> 128 µg/mL and > 233 µM	0.05925	4.71 ± 0.07	
CCCCCCCOc1cccc(NC(=O)OC(CN(CCC)CCC)CN2CCCCCC2)c1 (stereo not shown) [1p]	> 256 µg/mL and > 455 µM	256 µg/mL and 455 µM	> 256 µg/mL and > 455 µM	> 256 µg/mL and > 455 µM	4.20	6.1749	< 6.5	64 µg/mL and 113 µM	16 µg/mL and 28.4 µM	256 µg/mL and 455 µM	8 µg/mL and 14.2 µM	> 128 µg/mL and > 227 µM	0.05692	6.32 ± 0.58	
CCCCCCCCCCCCOS(=O)(=O)[O-].[Na+] [SDS, sodium dodecyl sulfate, reference compound]															MBEC80 (minimum biofilm eradication concentration) [12]: 128 µg/mL; MICs (S. aureus ATCC 29213; SA = S. aureus ATCC 29213): 128 µg/mL; MIC (S. aureus ATCC 29213; SA = S. aureus ATCC 29213, read-out: MICs): 443 µM; MIC (S. aureus ATCC 29213; Table 7, planktonic cells of S. aureus ATCC 29213): 128 µg/mL; MICs [1]: 128 µg/mL; MIC [1]: 443 µM; MICs [2]: 64 µg/mL; MIC [2]: 222 µM; MICs [3]: 64 µg/mL; MIC [3]: 222 µM; MICs [7]: 256 µg/mL; MIC [7]: 887 µM; MICs [8]: 128 µg/mL; MIC [8]: 443 µM; MICs [9]: 128 µg/mL; MIC [9]: 443 µM; MIC (E. faecalis ATCC 29212): 443 µM; MICs (E. faecalis ATCC 29212): 128 µg/mL; MBIC80 (minimum biofilm inhibitory concentration) [13]: 32 µg/mL
